Test results reported in ChEMBL document CHEMBL1129652, “Substituted 1,2-dihydrophthalazines: potent, selective, and noncompetitive inhibitors of the AMPA receptor” (J Med Chem, 1996).
pIC50: −log10 of the molar value.

These molecules were tested against Glutamate receptor ionotropic, AMPA (Rattus norvegicus) (UniProt P19491+P19492+P19493+P19490) (assay: Compound at 10 uM of kainic acid).
Type: functional

Row | SMILES | inhibition [%]
1 | CNC(=O)N1N=C(c2ccc(N)cc2)c2cc3c(cc2C1C)OCO3 (stereo not drawn) | 13

What follows are molecules tested against Glutamate receptor ionotropic, AMPA (Rattus norvegicus, UniProt P19490+P19491+P19492+P19493).
Description: Inhibitory activity against AMPA receptor currents in rat cortical cells stimulated with 50 uM kainic acid

Row | SMILES | pIC50
2 | CCNC(=O)N1N=C(c2ccc(N)cc2)c2cc3c(cc2C1C)OCO3 (stereo not drawn) | 5.14
3 | CCCCNC(=O)N1N=C(c2ccc(N)cc2)c2cc3c(cc2C1C)OCO3 (stereo not drawn) | 5.74
4 | CNC(=O)N1N=C(c2ccc(N)cc2)c2cc3c(cc2CC1C)OCO3 (stereo not drawn) [GYKI-53655] | 6.00
5 | CCCNC(=O)N1N=C(c2ccc(N)cc2)c2cc3c(cc2C1C)OCO3 (stereo not drawn) | 5.55
6 | CNC(=O)N1N=C(c2ccc(N)cc2)c2cc3c(cc2C1C)OCO3 (stereo not drawn) | 4.64
7 | CC1c2cc3c(cc2C(c2ccc(N)cc2)=NN1C(=O)NC(C)(C)C)OCO3 (stereo not drawn) | 5.27
8 | CC1=NN=C(c2ccc(N)cc2)c2cc3c(cc2C1)OCO3 [GYKI-52466] | 5.00
